According to ChEMBL document CHEMBL3991601, “The target landscape of clinical kinase drugs” (Science, 2017):
The source made the active and inactive calls. For most assays here, no stated cut-off is given here; in the data, actives have a measured Kd and inactives only a lower limit.

Tests used:
[1] = target: T1, Serine/threonine-protein kinase A-Raf (Homo sapiens, UniProt P10398)
T1 sequence (P10398 whole entry): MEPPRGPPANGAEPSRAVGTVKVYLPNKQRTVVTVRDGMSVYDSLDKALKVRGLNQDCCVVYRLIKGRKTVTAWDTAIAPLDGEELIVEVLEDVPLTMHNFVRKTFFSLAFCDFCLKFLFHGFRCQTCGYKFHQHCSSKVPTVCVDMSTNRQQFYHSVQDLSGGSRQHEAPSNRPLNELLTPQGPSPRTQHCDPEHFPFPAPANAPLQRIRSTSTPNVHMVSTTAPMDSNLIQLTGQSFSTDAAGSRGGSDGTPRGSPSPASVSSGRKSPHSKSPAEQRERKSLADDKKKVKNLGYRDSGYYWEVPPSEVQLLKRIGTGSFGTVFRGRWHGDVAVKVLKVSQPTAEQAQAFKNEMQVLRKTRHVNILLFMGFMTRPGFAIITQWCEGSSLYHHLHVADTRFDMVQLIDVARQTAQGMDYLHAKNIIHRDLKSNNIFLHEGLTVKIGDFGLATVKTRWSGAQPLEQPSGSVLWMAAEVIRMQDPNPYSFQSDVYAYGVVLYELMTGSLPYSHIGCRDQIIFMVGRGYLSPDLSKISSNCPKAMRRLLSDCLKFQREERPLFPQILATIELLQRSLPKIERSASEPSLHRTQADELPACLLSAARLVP

[2] = target: Mitogen-activated protein kinase kinase kinase 1 (Homo sapiens, UniProt Q13233)
[3] = target: Calcium/calmodulin-dependent protein kinase kinase 2 (Homo sapiens, UniProt Q96RR4)
Chain of Calcium/calmodulin-dependent protein kinase kinase 2 (Q96RR4 whole entry, canonical isoform): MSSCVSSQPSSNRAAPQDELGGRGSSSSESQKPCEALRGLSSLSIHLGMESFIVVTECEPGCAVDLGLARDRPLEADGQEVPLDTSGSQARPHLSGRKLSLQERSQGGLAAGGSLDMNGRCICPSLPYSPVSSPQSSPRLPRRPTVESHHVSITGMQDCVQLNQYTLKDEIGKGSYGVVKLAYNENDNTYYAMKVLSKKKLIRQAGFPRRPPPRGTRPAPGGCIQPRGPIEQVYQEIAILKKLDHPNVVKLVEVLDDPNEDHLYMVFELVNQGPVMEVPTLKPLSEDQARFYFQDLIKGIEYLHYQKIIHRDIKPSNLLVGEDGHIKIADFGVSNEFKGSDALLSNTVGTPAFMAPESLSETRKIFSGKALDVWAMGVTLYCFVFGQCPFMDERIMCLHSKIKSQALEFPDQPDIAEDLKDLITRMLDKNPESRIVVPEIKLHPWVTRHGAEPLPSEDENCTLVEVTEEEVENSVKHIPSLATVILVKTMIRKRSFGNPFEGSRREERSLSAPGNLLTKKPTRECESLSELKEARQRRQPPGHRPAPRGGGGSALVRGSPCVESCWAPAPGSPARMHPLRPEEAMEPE

[4] = target: Casein kinase I isoform alpha (Homo sapiens, UniProt P48729)
[5] = target: Bone morphogenetic protein receptor type-1B (Homo sapiens, UniProt O00238)
Chain of Bone morphogenetic protein receptor type-1B (O00238 whole entry): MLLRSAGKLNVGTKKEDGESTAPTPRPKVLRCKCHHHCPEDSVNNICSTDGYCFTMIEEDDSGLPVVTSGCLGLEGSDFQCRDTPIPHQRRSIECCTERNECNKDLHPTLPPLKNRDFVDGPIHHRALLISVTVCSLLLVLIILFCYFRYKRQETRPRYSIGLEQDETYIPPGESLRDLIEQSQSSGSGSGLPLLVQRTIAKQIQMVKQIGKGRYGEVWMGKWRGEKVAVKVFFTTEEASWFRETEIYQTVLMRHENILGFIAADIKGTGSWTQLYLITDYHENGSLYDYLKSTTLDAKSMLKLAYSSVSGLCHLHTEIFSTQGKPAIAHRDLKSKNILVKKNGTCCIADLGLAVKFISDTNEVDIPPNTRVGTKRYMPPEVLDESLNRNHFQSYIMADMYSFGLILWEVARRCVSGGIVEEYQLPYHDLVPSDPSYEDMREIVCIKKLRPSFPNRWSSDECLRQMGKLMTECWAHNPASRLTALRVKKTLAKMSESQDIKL

[6] = target: T2, EKC/KEOPS complex subunit TP53RK (Homo sapiens, UniProt Q96S44)
T2 sequence (Q96S44 whole entry): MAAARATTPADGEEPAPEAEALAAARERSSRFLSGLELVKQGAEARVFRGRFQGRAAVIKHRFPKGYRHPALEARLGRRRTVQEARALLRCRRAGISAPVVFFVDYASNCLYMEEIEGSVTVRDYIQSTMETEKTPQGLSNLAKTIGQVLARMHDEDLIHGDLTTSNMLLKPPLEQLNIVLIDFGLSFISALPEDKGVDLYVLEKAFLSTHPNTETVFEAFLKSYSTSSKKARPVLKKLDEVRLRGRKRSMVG

[7] = target: Macrophage-stimulating protein receptor (Homo sapiens, UniProt Q04912)
[8] = target: Dual specificity mitogen-activated protein kinase kinase 2 (Homo sapiens, UniProt P36507)
Chain of Dual specificity mitogen-activated protein kinase kinase 2 (P36507 whole entry): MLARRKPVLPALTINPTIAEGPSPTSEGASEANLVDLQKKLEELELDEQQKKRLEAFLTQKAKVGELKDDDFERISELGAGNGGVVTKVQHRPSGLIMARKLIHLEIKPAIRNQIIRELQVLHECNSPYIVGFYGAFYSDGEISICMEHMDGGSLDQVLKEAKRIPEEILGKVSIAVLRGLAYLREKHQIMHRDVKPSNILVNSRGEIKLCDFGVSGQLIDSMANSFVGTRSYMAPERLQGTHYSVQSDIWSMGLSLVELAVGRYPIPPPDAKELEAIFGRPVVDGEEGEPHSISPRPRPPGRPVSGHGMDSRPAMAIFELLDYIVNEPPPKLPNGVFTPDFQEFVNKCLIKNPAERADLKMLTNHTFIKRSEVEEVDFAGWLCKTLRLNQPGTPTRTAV

Ephrin type-B receptor 3 = target: T3, Ephrin type-B receptor 3 (Homo sapiens, UniProt P54753)
T3 sequence (P54753 whole entry): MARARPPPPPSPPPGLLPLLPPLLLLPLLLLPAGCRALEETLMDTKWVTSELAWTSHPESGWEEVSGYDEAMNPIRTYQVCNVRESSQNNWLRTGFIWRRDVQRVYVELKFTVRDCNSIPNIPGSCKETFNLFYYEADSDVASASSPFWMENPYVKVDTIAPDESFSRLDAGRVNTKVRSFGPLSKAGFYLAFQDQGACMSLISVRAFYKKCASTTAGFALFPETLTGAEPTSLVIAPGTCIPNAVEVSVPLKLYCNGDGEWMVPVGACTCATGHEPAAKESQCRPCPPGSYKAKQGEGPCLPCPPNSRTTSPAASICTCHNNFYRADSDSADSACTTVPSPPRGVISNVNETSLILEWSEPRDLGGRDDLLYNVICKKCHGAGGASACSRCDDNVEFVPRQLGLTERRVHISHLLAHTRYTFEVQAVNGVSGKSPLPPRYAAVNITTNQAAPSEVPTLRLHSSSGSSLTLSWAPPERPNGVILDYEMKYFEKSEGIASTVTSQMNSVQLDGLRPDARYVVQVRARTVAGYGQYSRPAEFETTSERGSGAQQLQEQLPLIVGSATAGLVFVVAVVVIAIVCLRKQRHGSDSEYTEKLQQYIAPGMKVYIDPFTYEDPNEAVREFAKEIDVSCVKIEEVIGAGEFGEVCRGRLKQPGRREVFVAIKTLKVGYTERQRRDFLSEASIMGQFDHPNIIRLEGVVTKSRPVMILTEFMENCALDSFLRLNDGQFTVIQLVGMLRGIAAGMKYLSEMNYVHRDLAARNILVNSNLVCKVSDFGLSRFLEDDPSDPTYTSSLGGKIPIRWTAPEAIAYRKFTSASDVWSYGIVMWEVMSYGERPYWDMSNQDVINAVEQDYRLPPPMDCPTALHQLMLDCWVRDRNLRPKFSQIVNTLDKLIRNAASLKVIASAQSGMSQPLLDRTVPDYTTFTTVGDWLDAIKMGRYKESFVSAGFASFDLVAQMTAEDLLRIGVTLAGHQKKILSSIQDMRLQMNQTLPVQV

[9] = target: T4, Serine/threonine-protein kinase Nek2 (Homo sapiens, UniProt P51955)
T4 sequence (P51955 whole entry): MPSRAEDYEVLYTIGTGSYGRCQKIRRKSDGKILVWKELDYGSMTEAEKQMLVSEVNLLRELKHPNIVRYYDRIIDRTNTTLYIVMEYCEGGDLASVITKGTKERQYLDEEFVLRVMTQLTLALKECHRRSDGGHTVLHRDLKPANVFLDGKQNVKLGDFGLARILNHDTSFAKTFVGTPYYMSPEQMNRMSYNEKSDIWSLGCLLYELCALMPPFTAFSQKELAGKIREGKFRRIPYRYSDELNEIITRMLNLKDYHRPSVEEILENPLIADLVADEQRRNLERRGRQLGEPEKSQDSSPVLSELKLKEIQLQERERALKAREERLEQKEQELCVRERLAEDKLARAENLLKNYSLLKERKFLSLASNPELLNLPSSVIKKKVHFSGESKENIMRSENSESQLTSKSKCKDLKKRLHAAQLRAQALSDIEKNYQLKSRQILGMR

[10] = target: Chromodomain-helicase-DNA-binding protein 4 (Homo sapiens, UniProt Q14839)
Chain of Chromodomain-helicase-DNA-binding protein 4 (Q14839 whole entry): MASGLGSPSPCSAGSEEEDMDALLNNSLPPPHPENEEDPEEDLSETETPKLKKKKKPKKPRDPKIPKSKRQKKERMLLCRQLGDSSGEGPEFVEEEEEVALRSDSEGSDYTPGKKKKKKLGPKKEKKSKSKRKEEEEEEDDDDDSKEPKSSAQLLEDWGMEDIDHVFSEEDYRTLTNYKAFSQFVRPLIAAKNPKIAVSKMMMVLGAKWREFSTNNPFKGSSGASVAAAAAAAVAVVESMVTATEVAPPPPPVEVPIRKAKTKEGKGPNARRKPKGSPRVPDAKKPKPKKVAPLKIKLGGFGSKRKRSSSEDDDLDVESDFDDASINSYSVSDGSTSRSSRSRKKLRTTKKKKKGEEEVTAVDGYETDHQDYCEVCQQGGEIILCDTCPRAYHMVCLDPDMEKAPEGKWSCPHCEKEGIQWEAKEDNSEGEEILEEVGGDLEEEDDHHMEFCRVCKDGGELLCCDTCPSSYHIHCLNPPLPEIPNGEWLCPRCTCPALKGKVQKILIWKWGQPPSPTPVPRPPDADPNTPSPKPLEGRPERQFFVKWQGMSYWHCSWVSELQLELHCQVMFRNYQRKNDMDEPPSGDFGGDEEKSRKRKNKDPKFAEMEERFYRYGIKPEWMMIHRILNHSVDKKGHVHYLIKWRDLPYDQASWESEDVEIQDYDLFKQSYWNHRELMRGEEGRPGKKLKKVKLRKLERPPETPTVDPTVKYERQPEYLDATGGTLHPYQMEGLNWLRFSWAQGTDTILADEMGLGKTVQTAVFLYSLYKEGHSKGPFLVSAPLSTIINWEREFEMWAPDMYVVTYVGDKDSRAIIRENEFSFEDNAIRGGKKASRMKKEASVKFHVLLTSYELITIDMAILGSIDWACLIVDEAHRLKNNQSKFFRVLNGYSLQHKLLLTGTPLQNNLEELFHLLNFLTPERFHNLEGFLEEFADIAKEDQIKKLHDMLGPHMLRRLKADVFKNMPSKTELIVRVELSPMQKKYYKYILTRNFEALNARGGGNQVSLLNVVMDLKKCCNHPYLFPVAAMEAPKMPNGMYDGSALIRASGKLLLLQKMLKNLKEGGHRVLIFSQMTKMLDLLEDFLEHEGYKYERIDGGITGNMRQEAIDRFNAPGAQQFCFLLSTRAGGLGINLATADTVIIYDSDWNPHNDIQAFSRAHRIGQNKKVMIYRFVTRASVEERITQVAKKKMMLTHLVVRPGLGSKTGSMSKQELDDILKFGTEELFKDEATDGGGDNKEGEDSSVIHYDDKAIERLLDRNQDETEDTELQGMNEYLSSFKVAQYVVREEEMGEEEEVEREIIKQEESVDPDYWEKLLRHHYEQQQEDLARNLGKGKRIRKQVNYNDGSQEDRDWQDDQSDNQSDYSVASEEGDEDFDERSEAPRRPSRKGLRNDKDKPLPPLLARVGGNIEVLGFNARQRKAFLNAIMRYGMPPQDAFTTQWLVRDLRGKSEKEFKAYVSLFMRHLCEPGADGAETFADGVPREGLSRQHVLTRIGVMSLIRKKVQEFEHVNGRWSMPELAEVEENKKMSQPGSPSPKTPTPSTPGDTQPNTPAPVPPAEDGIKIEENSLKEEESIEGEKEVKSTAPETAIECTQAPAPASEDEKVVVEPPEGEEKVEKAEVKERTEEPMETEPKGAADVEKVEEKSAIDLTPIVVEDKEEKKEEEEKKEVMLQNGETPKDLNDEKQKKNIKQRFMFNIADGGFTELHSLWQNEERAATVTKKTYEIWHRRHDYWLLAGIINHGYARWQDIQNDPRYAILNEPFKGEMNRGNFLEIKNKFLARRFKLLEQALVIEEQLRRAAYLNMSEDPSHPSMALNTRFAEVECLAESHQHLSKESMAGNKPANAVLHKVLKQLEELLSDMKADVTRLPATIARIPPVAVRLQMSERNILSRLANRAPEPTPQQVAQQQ

[11] = target: Mitogen-activated protein kinase 3 (Homo sapiens, UniProt P27361)
[12] = target: cAMP-dependent protein kinase catalytic subunit alpha (Homo sapiens, UniProt P17612)
[13] = target: Fibroblast growth factor receptor 1 (Homo sapiens, UniProt P11362)
Chain of Fibroblast growth factor receptor 1 (P11362 whole entry): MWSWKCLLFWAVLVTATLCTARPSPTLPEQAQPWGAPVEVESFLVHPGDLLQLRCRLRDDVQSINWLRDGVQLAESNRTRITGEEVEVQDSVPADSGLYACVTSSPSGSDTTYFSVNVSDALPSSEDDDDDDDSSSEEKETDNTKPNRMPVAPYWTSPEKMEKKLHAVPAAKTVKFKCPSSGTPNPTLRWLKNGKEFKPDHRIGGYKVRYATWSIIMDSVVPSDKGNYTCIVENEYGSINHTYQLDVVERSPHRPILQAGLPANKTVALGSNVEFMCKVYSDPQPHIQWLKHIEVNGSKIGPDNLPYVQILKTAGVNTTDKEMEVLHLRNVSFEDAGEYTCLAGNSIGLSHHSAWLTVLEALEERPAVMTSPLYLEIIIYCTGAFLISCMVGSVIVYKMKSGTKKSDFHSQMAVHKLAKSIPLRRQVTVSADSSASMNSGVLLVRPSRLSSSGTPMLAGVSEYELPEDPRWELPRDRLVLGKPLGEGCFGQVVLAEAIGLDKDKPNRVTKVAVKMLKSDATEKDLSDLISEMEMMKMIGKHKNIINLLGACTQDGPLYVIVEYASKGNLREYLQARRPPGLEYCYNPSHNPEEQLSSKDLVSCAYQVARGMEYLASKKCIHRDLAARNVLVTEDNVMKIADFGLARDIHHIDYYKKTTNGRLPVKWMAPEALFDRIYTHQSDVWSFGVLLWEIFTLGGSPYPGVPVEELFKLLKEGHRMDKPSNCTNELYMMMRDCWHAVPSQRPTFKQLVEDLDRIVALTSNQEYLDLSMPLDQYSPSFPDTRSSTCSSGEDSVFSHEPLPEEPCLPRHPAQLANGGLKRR

[14] = target: Mitogen-activated protein kinase 7 (Homo sapiens, UniProt Q13164)
Chain of Mitogen-activated protein kinase 7 (Q13164 whole entry): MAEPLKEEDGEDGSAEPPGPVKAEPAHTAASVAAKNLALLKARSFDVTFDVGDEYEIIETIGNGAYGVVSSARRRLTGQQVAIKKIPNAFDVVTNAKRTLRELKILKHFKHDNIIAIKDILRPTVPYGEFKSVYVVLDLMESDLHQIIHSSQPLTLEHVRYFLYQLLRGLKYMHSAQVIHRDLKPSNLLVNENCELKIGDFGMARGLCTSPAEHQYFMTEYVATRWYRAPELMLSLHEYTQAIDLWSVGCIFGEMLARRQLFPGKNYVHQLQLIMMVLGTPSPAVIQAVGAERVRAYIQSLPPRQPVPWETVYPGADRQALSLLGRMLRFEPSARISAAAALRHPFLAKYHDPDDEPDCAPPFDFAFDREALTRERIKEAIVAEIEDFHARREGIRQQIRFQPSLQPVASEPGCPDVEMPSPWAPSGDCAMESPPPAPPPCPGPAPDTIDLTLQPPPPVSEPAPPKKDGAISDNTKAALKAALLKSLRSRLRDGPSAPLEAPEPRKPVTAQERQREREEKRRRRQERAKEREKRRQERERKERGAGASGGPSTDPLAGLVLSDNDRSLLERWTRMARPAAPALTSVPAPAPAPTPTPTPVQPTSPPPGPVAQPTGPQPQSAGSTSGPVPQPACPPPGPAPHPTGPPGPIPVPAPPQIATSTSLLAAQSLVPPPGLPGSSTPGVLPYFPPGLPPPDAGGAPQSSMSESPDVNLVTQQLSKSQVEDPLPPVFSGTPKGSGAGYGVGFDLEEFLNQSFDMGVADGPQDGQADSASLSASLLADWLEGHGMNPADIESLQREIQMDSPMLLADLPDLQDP

Row | Structure (SMILES) | Kd [1] | Kd [2] | Kd [3] | Kd [4] | Kd [5] | Kd [6] | Kd [7] | Kd [8] | Kd (Ephrin type-B receptor 3) | Kd [9] | Kd [10] | Kd [11] | Kd [12] | Kd [13] | Kd [14]
1 | Cn1cc(-c2ccc3nnc(C(F)(F)c4ccc5ncccc5c4)n3n2)cn1 [JNJ-38877605] | > 30 µM (inactive) | > 30 µM (inactive) | > 30 µM (inactive) | > 30 µM (inactive) | > 30 µM (inactive) | > 30 µM (inactive) | > 30 µM (inactive) | > 30 µM (inactive) | > 30 µM (inactive) | > 30 µM (inactive) | > 30 µM (inactive) | > 30 µM (inactive) | > 30 µM (inactive) | > 30 µM (inactive) | > 30 µM (inactive)
2 | Cn1ncc(Cl)c1-c1cc(C(=O)N[C@H](CN)Cc2cccc(F)c2)sc1Cl [AFURESERTIB] | > 30 µM (inactive) | > 30 µM (inactive) | > 30 µM (inactive) | > 30 µM (inactive) | > 30 µM (inactive) | > 30 µM (inactive) | > 30 µM (inactive) | > 30 µM (inactive) | > 30 µM (inactive) | > 30 µM (inactive) | > 30 µM (inactive) | > 30 µM (inactive) | 0.133 µM (active) | > 30 µM (inactive) | > 30 µM (inactive)
3 | CN(C)C(=O)c1cc2cnc(Nc3ccc(N4CCNCC4)cn3)nc2n1C1CCCC1 [RIBOCICLIB] | > 30 µM (inactive) | 12.5 µM (active) | > 30 µM (inactive) | > 30 µM (inactive) | > 30 µM (inactive) | > 30 µM (inactive) | > 30 µM (inactive) | > 30 µM (inactive) | > 30 µM (inactive) | > 30 µM (inactive) | > 30 µM (inactive) | > 30 µM (inactive) | > 30 µM (inactive) | > 30 µM (inactive) | > 30 µM (inactive)
4 | COc1ccc(-c2ccc3c(N4CCOC[C@@H]4C)nc(N4CCOC[C@@H]4C)nc3n2)cc1CO [AZD-8055] | > 30 µM (inactive) | > 30 µM (inactive) | > 30 µM (inactive) | > 30 µM (inactive) | > 30 µM (inactive) | > 30 µM (inactive) | > 30 µM (inactive) | > 30 µM (inactive) | > 30 µM (inactive) | > 30 µM (inactive) | > 30 µM (inactive) | > 30 µM (inactive) | > 30 µM (inactive) | > 30 µM (inactive) | > 30 µM (inactive)
5 | CNC(=O)CN1CCC(Oc2cc3c(Nc4cccc(Cl)c4F)ncnc3cc2OC)CC1 [SAPITINIB] | > 30 µM (inactive) | > 30 µM (inactive) | > 30 µM (inactive) | > 30 µM (inactive) | > 30 µM (inactive) | > 30 µM (inactive) | > 30 µM (inactive) | > 30 µM (inactive) | > 30 µM (inactive) | > 30 µM (inactive) | > 30 µM (inactive) | > 30 µM (inactive) | > 30 µM (inactive) | > 30 µM (inactive) | > 30 µM (inactive)
6 | CCCS(=O)(=O)Nc1ccc(F)c(C(=O)c2c[nH]c3ncc(-c4ccc(Cl)cc4)cc23)c1F [VEMURAFENIB] | 2.14 µM (active) | > 30 µM (inactive) | > 30 µM (inactive) | > 30 µM (inactive) | > 30 µM (inactive) | > 30 µM (inactive) | > 30 µM (inactive) | > 30 µM (inactive) | > 30 µM (inactive) | > 30 µM (inactive) | > 30 µM (inactive) | > 30 µM (inactive) | > 30 µM (inactive) | > 30 µM (inactive) | > 30 µM (inactive)
7 | CN1CCC(COc2cnc(-c3cccc(Cn4nc(-c5cccc(C#N)c5)ccc4=O)c3)nc2)CC1 [TEPOTINIB] | > 30 µM (inactive) | > 30 µM (inactive) | > 30 µM (inactive) | > 30 µM (inactive) | > 30 µM (inactive) | > 30 µM (inactive) | > 30 µM (inactive) | > 30 µM (inactive) | > 30 µM (inactive) | > 30 µM (inactive) | > 30 µM (inactive) | > 30 µM (inactive) | > 30 µM (inactive) | > 30 µM (inactive) | > 30 µM (inactive)
